These results are taken from ChEMBL document CHEMBL1201862, “PubChem BioAssay data set” (2004).

Each structure is given as a SMILES string.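 Grown in 96-well plates, cells were treated for 48 hours with each compound at five concentrations. Insufficient inhibition: endpoint recorded as highest concentration tested. GI50 marks 50% less growth.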 Activity calls are given as the source filed them. Rule as the data show it: active = GI50 up to about 1.1 µM and inactive = higher.

Some test systems named below: 786-0; NCI-H23; COLO 205; NCI/ADR-RES; NCI-H460; MCF7; OVCAR-5; CAKI-1; SF-539; CCRF-CEM; SK-OV-3; K562; MOLT-4; M14; SNB-75; LOX IMVI; HCC 2998; Malme-3M; HCT-116; DLD-1.
Holding throughout (assay): DTP human tumour cell line panel, 48 h

One may read the GI50 as the concentration at which growth is held to half of that of the control. Consider `O=C(O)CCSCc1ccccc1`, for which the GI50 in the test on 786-0, in the test on NCI-H23, with COLO 205, in the test with NCI/ADR-RES, with NCI-H460 and with MCF7 was > 100 µM (inactive) each time. The GI50 in the test on OVCAR-5, in the test with CAKI-1, with SF-539, in the test on CCRF-CEM, in the test on SK-OV-3 and with K562 was > 100 µM (inactive) each time. The GI50 with MOLT-4, in the test on M14, in the test with SNB-75, in the test with LOX IMVI, with HCC 2998 and in the test with Malme-3M was > 100 µM (inactive) in each case. Besides, the GI50 in the test on HCT-116 was > 100 µM (inactive).
Consider `O=C1C=CC2(C=C1)CCNC1=C2C(=O)c2ccccc2C1=O`, for which the GI50 in the test with 786-0, with NCI-H23, in the test with COLO 205, in the test on NCI-H460, with OVCAR-5 and in the test with SF-539 was > 100 µM (inactive) throughout. Further, the GI50 in the test on CCRF-CEM, with SK-OV-3, with K562, in the test with DLD-1, in the test with MOLT-4 and with M14 was > 100 µM (inactive) in each case. In addition, the GI50 in the test on SNB-75 was 30.8 µM (inactive); in the test with LOX IMVI, > 100 µM (inactive); in the test with HCC 2998 it was > 100 µM (inactive); in the test with Malme-3M, > 100 µM (inactive); in the test with HCT-116, > 100 µM (inactive).
Regarding `N#CC(NNC(=O)c1ccccc1O)c1cccc(O)c1` (centres undefined), the GI50 in the test with 786-0 was 6.53 µM (inactive); in the test with NCI-H23, 2.9 µM (inactive); in the test on COLO 205, 32.7 µM (inactive); in the test on NCI-H460, 3.47 µM (inactive); in the test on OVCAR-5, 54.7 µM (inactive); in the test on CAKI-1, 5.43 µM (inactive). In addition, the GI50 is 2.93 µM (inactive) with SF-539; 4.66 µM (inactive) in the test with CCRF-CEM; 3.93 µM (inactive) in the test on SK-OV-3; 2.31 µM (inactive) with K562; 4.54 µM (inactive) in the test on DLD-1; 58.2 µM (inactive) with MOLT-4. In addition, the GI50 in the test with M14 was 6.35 µM (inactive); with SNB-75, 1.7 µM (inactive); in the test with LOX IMVI, 4.94 µM (inactive); with Malme-3M it was 12.9 µM (inactive); with HCT-116, 3.26 µM (inactive).
In the case of `O=C(O)/C=C\C(=O)Nc1ccc(S(=O)(=O)c2ccc(NC(=O)/C=C\C(=O)O)cc2)cc1`, the GI50 in the test on 786-0, in the test on NCI-H23, in the test with COLO 205, with OVCAR-5, in the test on CAKI-1 and in the test with SF-539 was > 100 µM (inactive) in each case. Also, the GI50 with CCRF-CEM, in the test with SK-OV-3, with K562, with DLD-1, in the test with MOLT-4 and in the test with M14 was > 100 µM (inactive) throughout. In addition, the GI50 with SNB-75, in the test with LOX IMVI, with Malme-3M and in the test with HCT-116 was > 100 µM (inactive) in each case.
Turning to `COc1ccc(-c2cc(C(=O)Nc3ccc(C)c(C)c3)nc(NC#N)n2)cc1`, the GI50 with 786-0, with NCI-H23, with COLO 205, in the test with NCI-H460, in the test with OVCAR-5 and with CAKI-1 was > 100 µM (inactive) in each case. Further, the GI50 in the test with SF-539, with CCRF-CEM, in the test with SK-OV-3, with K562, in the test with DLD-1 and in the test on MOLT-4 was > 100 µM (inactive) throughout. Moreover, the GI50 with M14, in the test on SNB-75, with LOX IMVI, with Malme-3M and in the test with HCT-116 was > 100 µM (inactive) in each case.
With `COc1cc2nncc(Sc3cnnc4ccccc34)c2cc1OC`, the GI50 in the test with 786-0 is 27.4 µM (inactive); in the test with NCI-H23, > 10 µM (inactive); in the test with COLO 205, 22.6 µM (inactive); in the test on NCI-H460, 22.8 µM (inactive); with OVCAR-5, 27 µM (inactive); in the test with CAKI-1, 11.8 µM (inactive). For the same molecule, the GI50 in the test on SF-539 was 21 µM (inactive); in the test with CCRF-CEM, 17.5 µM (inactive); in the test with SK-OV-3, 14.7 µM (inactive); with K562, 26 µM (inactive); in the test on DLD-1 it was 19.6 µM (inactive); in the test on MOLT-4 it was 22.2 µM (inactive). Moreover, the GI50 in the test with M14 was 18 µM (inactive); with LOX IMVI it was 23.3 µM (inactive); in the test on HCC 2998, 17.6 µM (inactive); in the test with Malme-3M it was 17.2 µM (inactive).
As for `O=C(N/C=C/C=C/Sc1ccccc1)OCc1ccccc1`, the GI50 with 786-0 is 16.9 µM (inactive); in the test on NCI-H23 it was 22.7 µM (inactive); in the test on COLO 205, 17.7 µM (inactive); with NCI-H460, 21.7 µM (inactive); in the test with OVCAR-5 it was 14.3 µM (inactive); in the test with CAKI-1, 20.3 µM (inactive). Besides, the GI50 in the test with SF-539 is 16.5 µM (inactive); in the test with CCRF-CEM, 52.1 µM (inactive); in the test with SK-OV-3, 33.8 µM (inactive); with K562 it was 15.4 µM (inactive); with DLD-1, 14.1 µM (inactive); in the test with MOLT-4, 15.4 µM (inactive). Moreover, the GI50 in the test with M14 is 18.5 µM (inactive); in the test with SNB-75, 21.5 µM (inactive); in the test with LOX IMVI it was 17.5 µM (inactive); in the test on HCC 2998, 20.1 µM (inactive); in the test with HCT-116, 18.2 µM (inactive).
For the molecule `Cc1sc2[nH]c(=O)oc(=O)c2c1C`, the GI50 with 786-0 is 70.3 µM (inactive); in the test with NCI-H23 it was > 100 µM (inactive); with COLO 205, 59 µM (inactive); with NCI/ADR-RES, 35.1 µM (inactive); in the test with NCI-H460, > 100 µM (inactive); in the test on MCF7, 26.1 µM (inactive). The GI50 was > 100 µM (inactive) in the test with OVCAR-5; 35.8 µM (inactive) in the test with CAKI-1; 58.3 µM (inactive) with SF-539; 39.6 µM (inactive) in the test on CCRF-CEM; > 100 µM (inactive) with SK-OV-3; > 96.4 µM (inactive) in the test with K562. For the same molecule, the GI50 is 48.5 µM (inactive) in the test on MOLT-4; > 61.9 µM (inactive) in the test with M14; > 55.8 µM (inactive) with SNB-75; 44.6 µM (inactive) in the test with LOX IMVI; > 88.5 µM (inactive) in the test on HCC 2998; > 72.1 µM (inactive) with Malme-3M. Besides, the GI50 with HCT-116 is > 100 µM (inactive).
Regarding `C#CCn1c(=O)c2cccnc2n(CC#C)c1=O`, the GI50 with 786-0, with NCI-H23, in the test with COLO 205, in the test on NCI-H460, in the test on OVCAR-5 and with CAKI-1 was > 100 µM (inactive) each time. The GI50 in the test with CCRF-CEM, in the test on SK-OV-3, in the test with DLD-1, in the test with MOLT-4, with M14 and in the test with SNB-75 was > 100 µM (inactive) throughout. Further, the GI50 in the test on LOX IMVI, in the test with HCC 2998, in the test on Malme-3M and in the test on HCT-116 was > 100 µM (inactive) in each case.
Turning to `O=Cc1c[nH]c2c(=O)[nH]cnc12`, the GI50 with 786-0, in the test with NCI-H23, in the test on COLO 205, in the test on CAKI-1, with CCRF-CEM and in the test with SK-OV-3 was > 100 µM (inactive) in each case. For the same molecule, the GI50 in the test on K562, in the test with DLD-1, in the test with MOLT-4, in the test with M14, in the test on SNB-75 and in the test on LOX IMVI was > 100 µM (inactive) each time. Moreover, the GI50 in the test with HCC 2998, with Malme-3M and in the test with HCT-116 was > 100 µM (inactive) throughout.
Consider `O=C(O)C1C(C(=O)O)C2C(=O)C=CC1N2Cc1ccccc1` (centres undefined), for which the GI50 in the test with 786-0 was 2.49 µM (inactive); in the test on NCI-H23 it was 2.27 µM (inactive); in the test on COLO 205 it was 6.98 µM (inactive); in the test with NCI/ADR-RES, 2.3 µM (inactive); in the test with NCI-H460, 1.98 µM (inactive); in the test with MCF7, 4.63 µM (inactive). The GI50 was 6.22 µM (inactive) in the test with OVCAR-5; 3.94 µM (inactive) with CAKI-1; 2.8 µM (inactive) in the test with SF-539; 0.383 µM (active) in the test with CCRF-CEM; 5.35 µM (inactive) with SK-OV-3; 6.67 µM (inactive) in the test on K562. The GI50 is 3.54 µM (inactive) in the test with MOLT-4; 2.25 µM (inactive) in the test with M14; 2.65 µM (inactive) in the test on SNB-75; 3.4 µM (inactive) in the test with LOX IMVI; 2.8 µM (inactive) with HCC 2998; 3.68 µM (inactive) with Malme-3M. Further, the GI50 with HCT-116 is 3.68 µM (inactive).
As to `CCN(CC)CC1c2ccccc2C(CNc2ccccc2)N1C` (centres undefined), the GI50 is > 100 µM (inactive) with 786-0; > 100 µM (inactive) in the test with NCI-H23; > 100 µM (inactive) in the test with COLO 205; > 100 µM (inactive) with NCI-H460; > 100 µM (inactive) with OVCAR-5; 92 µM (inactive) in the test with CAKI-1. In addition, the GI50 in the test with CCRF-CEM was 83.8 µM (inactive); with SK-OV-3, > 100 µM (inactive); in the test with K562, 57.8 µM (inactive); with DLD-1, 70.8 µM (inactive); in the test with MOLT-4 it was 80.4 µM (inactive); with M14, > 100 µM (inactive). Moreover, the GI50 is 49.3 µM (inactive) in the test with SNB-75, > 100 µM (inactive) in the test on LOX IMVI, > 100 µM (inactive) in the test with HCC 2998 and > 100 µM (inactive) with Malme-3M.
